The values below come from the supplement of paper PMC10307832.

What all share (assay): relative viability (nuclei count vs DMSO), 5 days (fraction); higher = more cells survive
Compound in the test “AZ628 + Pemetrexed”: CC1=C(C=C(C=C1)NC(=O)C2=CC(=CC=C2)C(C)(C)C#N)NC3=CC4=C(C=C3)N=CN(C4=O)C [AZ628] + Nc1nc2[nH]cc(CCc3ccc(C(=O)N[C@@H](CCC(=O)O)C(=O)O)cc3)c2c(=O)[nH]1 [Pemetrexed] (partner 0.2 µM)
A digest of the protocol: (§1)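 For relative viability, nuclei counts in treated wells were divided by those in vehicle wells. Lung cancer cell lines had been pin-tool dosed in 1536-well plates the day after seeding and cultured for 5 days, then fixed and stained in one step (final 0.05% Triton X-100, 1% formaldehyde, 1 ug/ml Hoechst) and imaged at 4×. Doses were one drug alone or a fixed anchor-drug dose plus five library-drug doses (not always all listed) in √10 steps, and values are duplicate-plate medians.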

Compound in the test “AZ628 + Decitabine”: CC1=C(C=C(C=C1)NC(=O)C2=CC(=CC=C2)C(C)(C)C#N)NC3=CC4=C(C=C3)N=CN(C4=O)C [AZ628] + Nc1ncn([C@H]2C[C@H](O)[C@@H](CO)O2)c(=O)n1 [Decitabine] (partner 2 µM)
The method in brief: as §1

Compound in the test “QS11 + Dasatinib”: C1CC2=C(C1)C=C(C=C2)OC3=NC(=C4C(=N3)N(C=N4)CC5=CC=C(C=C5)C6=CC=CC=C6)N[C@@H](CC7=CC=CC=C7)CO [QS11] + Cc1nc(Nc2ncc(C(=O)Nc3c(C)cccc3Cl)s2)cc(N2CCN(CCO)CC2)n1 [Dasatinib] (partner 0.075 µM)
The method in brief: as §1

LCLC-97TM1: the relative viability in the test with AZ628 + Pemetrexed (first compound 0.08 µM) was 0.246; in the test with AZ628 + Pemetrexed (first compound 0.253 µM) it was 0.255; with AZ628 + Pemetrexed (first compound 0.8 µM), 0.238; with AZ628 + Pemetrexed (first compound 2.53 µM), 0.229; in the test with AZ628 + Pemetrexed (first compound 8 µM) it was 0.121; in the test with AZ628 + Decitabine (first compound 0.08 µM) it was 0.276. In addition, the relative viability in the test with AZ628 + Decitabine (first compound 0.253 µM) amounted to 0.265; with AZ628 + Decitabine (first compound 0.8 µM) it was 0.257; with AZ628 + Decitabine (first compound 2.53 µM), 0.199; with AZ628 + Decitabine (first compound 8 µM) it was 0.13; in the test with QS11 + Dasatinib (first compound 0.08 µM), 0.777; with QS11 + Dasatinib (first compound 0.253 µM) it was 0.932. In addition, the relative viability was found to be 0.868 with QS11 + Dasatinib (first compound 2.53 µM) and 1.01 in the test with QS11 + Dasatinib (first compound 8 µM).
